Reference: patent US20110136876A1, “Altering Pharmacokinetics of Pirfenidone Therapy” (INTERMUNE, INC., priority 2007, published 2011)
Like-named read-outs stand apart in the source and are kept apart here.

Assays:
[1] = Single dose study: pharmacokinetics of pirfenidone, fasted versus fed; format: in vivo; conditions: human, plasma, 801 mg; for half-life: oral, read-out: mean absorption half life (t1/2, abs) (converted)
Description: (§1) A study was designed to evaluate the effect of food, antacids, and food taken with antacids on adverse events associated with pirfenidone use. The trial was conducted as a randomized, open-label, four-treatment crossover, with a single dose for each treatment period and a 2-day washout period between study treatments. 16 healthy adults between the ages of 50 and 79 years having body mass indices between 18 and 30 (inclusive) were enrolled and completed all 4 treatment arms. The treatment arms were as follows:
(§2) A) pirfenidone alone (Fasted);
(§3) B) pirfenidone within 1 minute following a dose of antacid (20 mL Mylanta® Maximum Strength Liquid) (Fasted+Antacid);
(§4) C) pirfenidone 5 minutes after completing a standard meal (Fed); and
(§5) D) pirfenidone 5 minutes after completing a standard meal, then within 1 minute, followed by a dose of antacid (Fed+Antacid).
(§6) All subjects were admitted to the clinic for clinical evaluation the day prior to receiving the first dose of the study medication and remained confined for 13 days. Following an overnight fast of at least 10 hours (h), subjects were randomized to one of the above-described 4 treatment sequences. Each dose of pirfenidone (3×267 mg capsules) was administered orally with 240 mL room temperature water on days 1, 4, 7, and 10 in the morning, following an overnight fast of at least 10 hours. The washout period between treatments was 2 days. A standard meal consisted of 2 fried eggs, 2 strips of bacon, 2 slices of toast, 2 pats of butter, hash brown potatoes (4 oz), and whole milk (8 oz).
Of 7 subjects who reported nausea, 5 of 16 (31%) were fasted compared to only 2 of 16 (13%) fed subjects. Of 5 subjects reporting dizziness, 4 of 16 (25%) were fasted, while only 1 of 16 (6%) was fed. Of 3 subjects reporting somnolence, 2 of 16 (13%) were fasted and 1 of 16 (6%) were fed. Of 3 subjects reporting headaches, 2 of 16 (13%) were fasted and 1 of 16 (6%) were fed.

[2] = Single dose study: adverse events with food, antacid, or food plus antacid; format: in vivo, human; conditions: for dizziness incidence / nausea incidence / somnolence incidence / headache incidence: of 16 subjects
Description: as §1, §2, §3, §4, §5, §6
On each study day, adverse events were reviewed with the patients as follows. Before administration of the first dose of the study drug, study site personnel noted the occurrence and nature of each subject's medical condition(s). During the trial, site personnel again noted any change in the condition(s) or occurrence and nature of any adverse events. The severity of adverse events were graded based on the Modified Common Toxicity Criteria and the relationship of the study drug to the adverse event determined.

[3] = Multiple dose study: adverse events on multiple ascending daily doses taken with food; format: in vivo, human
Description: A second study was designed to examine incidences of adverse events on multiple ascending daily doses of pirfenidone. The trial was conducted as an open-label, escalating-dose study with no washout period between dose escalations. 25 healthy adults between the ages of 45 and 79 (inclusive) having body mass indices between 18 and 30 (inclusive) were enrolled. 22 adults completed the treatment. Each volunteer received from 801 mg/day to 4005 mg/day of pirfenidone divided into three equal doses as follows:
Days 1-2: 1 capsule three times a day (TID) (801 mg total daily dose (TDD))
Day 3: 1 capsule in the morning (0800) (267 mg TDD)
Days 4-5: 2 capsules TID (1602 mg TDD)
Day 6: 2 capsules in the morning (534 mg TDD)
Days 7-8: 3 capsules TID (2403 mg TDD)
Day 9: 3 capsules in the morning (801 mg TDD)
Day 12: 4 capsules in the morning (1068 mg TDD)
Day 15: 5 capsules in the morning (1335 mg TDD)
All subjects were admitted to the clinic for clinical evaluation the day before the first dose of study medication and remained confined for 17 days. Each subject received all dose levels of the study drug unless adverse events or the clinical judgment of the trial physician precluded the continuation of treatment. All doses were taken with 240 mL room temperature water and with food (excluding grapefruit juice). TID doses times were ˜0800, ˜1200, and ˜1800.

[4] = 801 to 4005 mg/day TID with food, of 25 subjects

`Cc1ccc(=O)n(-c2ccccc2)c1` [pirfenidone, 5-methyl-1-phenyl-2-(1H)-pyridone] showed a half-life ([1]; with food (fed)) of ~1.78 h, a half-life ([1]; without food (fasted)) of ~0.572 h and a Cmax ([1]; po, fasted (without food), single oral dose 3x267 mg capsules, healthy adults) of 15700 ng/mL. The AUC ([1]; po, fasted, single oral dose 3x267 mg capsules) was 72700 ng·h/mL, the AUC ([1]; po, fed, single oral dose 3x267 mg capsules) was 64600 ng·h/mL and the dizziness incidence ([2]; all treatment arms) was 38%. The nausea incidence ([2]; all treatment arms) was 44%, the somnolence incidence ([2]; all treatment arms) was 25% and the dizziness incidence ([2]; fasted) was 25%. The headache incidence ([2]; fasted) was 13%, the nausea incidence ([2]; fasted) was 31% and the somnolence incidence ([2]; fasted) was 13%. It also gave a dizziness incidence ([2]; fed) of 6%, a headache incidence ([2]; fed) of 6% and a nausea incidence ([2]; fed) of 13%. For the same molecule, the somnolence incidence ([2]; fed) was 6%, the “subjects with at least 1 adverse event” value ([2]; in total, all treatment arms, 16 subjects) was 75% and the “subjects with adverse events whose adverse events were mild” value ([2]; of the 12 subjects with at least 1 adverse event) was 75%. The “subjects who experienced an adverse event” value ([2]; with food (Fed), 16 subjects) was 31.3%, the “subjects who experienced an adverse event” value ([2]; with food and antacid (Fed+Antacid), 16 subjects) was 25% and the “subjects who experienced an adverse event” value ([2]; within 1 minute following a dose of antacid (Fasted+Antacid), 16 subjects) was 56.3%. For the same molecule, the “subjects who experienced an adverse event” value ([2]; without food (Fasted), 16 subjects) was 56.3%, the “subjects with at least one adverse event” value ([3]; 801 to 4005 mg/day TID with food, 25 subjects) was 92% and the headache incidence [3, 4] was 28%. The nausea incidence [3, 4] was 36%, the somnolence incidence [3, 4] was 32% and the “subjects with adverse events whose adverse events were mild” value ([3]; of the 23 subjects with at least one adverse event) was 96%.
